This passage reports IC50 results from ChEMBL document CHEMBL1152338, “Discorhabdins revisited: cytotoxic alkaloids from southern australian marine sponges of the genera Higginsia and Spongosorites” (J Nat Prod, 2009).

Common to all, as to assay type: functional, cell-based
Assay [1] deals with HT-29. Description: Cytotoxicity against human HT-29 cells.
For assay [2], the system named is MDA-MB-231. Description: Cytotoxicity against human MDA-MB-231 cells.
The subject of assay [3] is A549. Description: Cytotoxicity against human A549 cells.

What is called IC50 is the midpoint of a concentration-inhibition curve.

Values after ≈ are worked out from the molar mass of the structure shown.

With `O=C1C2=C3C4=[N+](CCc5c[nH]c1c54)[C@@H]1[C@H](O)C=C4S[C@@H](C[C@@]43[C@H]1O)N2`, the IC50 in assay [1], in assay [2] and in assay [3] was 0.1 µg/mL throughout.
Regarding `O=C1C2=C(C3=NCCc4c[nH]c1c43)[C@]13C=C(Br)[C@@H](O)C[C@H]1S[C@@H](C3)N2`, the IC50 in assay [1], in assay [2] and in assay [3] was 0.1 µg/mL (≈ 0.239 µM) each time.
In the case of `CN1CCc2cn(C)c3c2C1=CC(=O)C3=O` [DAMIRONE A], the half-maximal inhibitory concentration (IC50) in assay [1], in assay [2] and in assay [3] was 5 µg/mL (≈ 23.1 µM) each time.
With `O=C1C[C@H]2S[C@H]3C[C@]2(C=C1Br)C1=C(N3)C(=O)c2[nH]cc3c2C1=NCC3` [DISCORHABDINE A], the IC50 in assay [1], in assay [2] and in assay [3] was 0.05 µg/mL (≈ 0.12 µM) in each case.
As to `C[N+]1=C2C=C(NCCc3ccc(O)cc3)C(=O)c3[nH]cc(c32)CC1` [MAKALUVAMINE J], the IC50 in assay [1], in assay [2] and in assay [3] was 5 µg/mL throughout.
